# Results from patent US20100105663A1, “2-(HETEROARYL) ALKYL INDAZOLE 6-PHENYL AND THIENYL METHYL AMIDE AS THROMBIN INHIBITORS” (BAYER HEALTHCARE AG, priority 2006, published 2010).
# Target: human thrombin (Homo sapiens, UniProt P00734)
# Experiment: Measurement of thrombin inhibition (in vitro enzyme assay)
# Type: biochemical
# Details: human thrombin 0.06 nmol/l, 15 min incubation at 22° C., pH 7.4; substrate 5 μmol/l Boc-Asp(OBzl)-Pro-Arg-AMC, 30 min, fluorescence
# Experimental: For determination of the thrombin inhibition of the aforementioned substances, a biochemical test system is used, in which the conversion of a thrombin substrate is used for determining the enzymatic activity of human thrombin. In this, thrombin cleaves aminomethylcoumarin from the peptic substrate, and this is measured by fluorescence. The determinations are carried out in microtitre plates.
# The test substances are dissolved at different concentrations in dimethylsulphoxide and incubated for 15 min with human thrombin (0.06 nmol/l dissolved in 50 mmol/l Tris-buffer [C,C,C-Tris(hydroxymethyl)-aminomethane], 100 mmol/l NaCl, 0.1% BSA [bovine serum albumin], pH 7.4) at 22° C. Then the substrate (5 μmol/l Boc-Asp(OBzl)-Pro-Arg-AMC from the company Bachem) is added. After incubation for 30 min the sample is excited at a wavelength of 360 nm and the emission at 460 nm is measured. The measured emissions of the test preparations with test substance are compared with the control preparations without test substance (dimethylsulphoxide only, instead of test substance in dimethylsulphoxide) and IC50 values are calculated from the concentration-effect relations.
row,IC50 [nM],Structure (SMILES)
1,216,"O=C(NCc1cccc(Cl)c1)c1ccc2cn(CCN3CCOC3=O)nc2c1 [Example 4, N-(3-Chlorobenzyl)-2-[2-(2-oxo-1,3-oxazolidin-3-yl)ethyl]-2H-indazole-6-carboxamide]"
2,110,"Cc1nn(CCn2cc3ccc(C(=O)NCc4cccc(Cl)c4)cc3n2)c(C)c1Cl [Example 26, N-(3-Chlorobenzyl)-2-[2-(4-chloro-3,5-dimethyl-1H-pyrazol-1-yl)ethyl]-2H-indazole-6-carboxamide]"
3,26,"CN(C)C(Cn1cc2ccc(C(=O)NCc3cccc(Cl)c3)cc2n1)c1ccccc1Cl (stereo not drawn) [Example 49, N-(3-Chlorobenzyl)-2-[2-(2-chlorophenyl)-2-(dimethylamino)ethyl]-2H-indazole-6-carboxamide]"
